Here are results for ten compounds from patent US10173991B2, “Sulfone amide linked benzothiazole inhibitors of endothelial lipase” (BRISTOL-MYERS SQUIBB COMPANY, priority 2014, dated 2019).

In this assay the target is Endothelial lipase (EL) (Homo sapiens (Human), UniProt Q9Y5X9). Description: Endothelial lipase (EL) enzymatic assay with fluorescent substrate A10070 in DMPG vesicles. Type of assay: biochemical. In outline:
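Substrate A10070 sits in sonicated DMPG vesicles at 0.11 mole fraction. Lipase and compound preincubated 30 min, 37° C, in HEPES pH 8.0 buffer with CaCl2.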

[1] abbreviates: EL from conditioned media of HT-1080 cells, 30 min preincubation at 37° C.

For orientation: IC50 means the concentration at which inhibition is half-maximal. A lower IC50 goes with inhibition by little substance.

Each structure is given as a SMILES string. Like-named read-outs stand apart in the source and are kept apart here.

Sequence of Endothelial lipase (EL) (Q9Y5X9 21-500): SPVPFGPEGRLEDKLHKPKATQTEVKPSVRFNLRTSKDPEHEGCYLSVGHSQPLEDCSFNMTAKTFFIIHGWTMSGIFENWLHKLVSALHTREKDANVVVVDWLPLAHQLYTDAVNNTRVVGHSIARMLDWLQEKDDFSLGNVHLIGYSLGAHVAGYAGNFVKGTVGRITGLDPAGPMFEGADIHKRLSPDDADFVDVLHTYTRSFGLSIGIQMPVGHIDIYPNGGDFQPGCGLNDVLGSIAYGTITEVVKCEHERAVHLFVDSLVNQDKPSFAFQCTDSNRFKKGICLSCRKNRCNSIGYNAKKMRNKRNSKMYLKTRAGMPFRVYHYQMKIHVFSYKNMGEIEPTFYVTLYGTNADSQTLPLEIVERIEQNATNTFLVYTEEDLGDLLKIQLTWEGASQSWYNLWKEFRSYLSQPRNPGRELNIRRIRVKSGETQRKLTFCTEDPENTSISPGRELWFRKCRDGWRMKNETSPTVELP

As to `O=C(CNC(=O)C(c1nc2cc(F)c(-c3ccc(C(=O)NCCc4ccccc4)cc3)cc2s1)S(=O)(=O)CCC(F)(F)F)NC1CC1` (stereo not shown) [Example 572, 4-[2-({[(Cyclopropylcarbamoyl)methyl]carbamoyl}(3,3,3-trifluoropropanesulfonyl)methyl)-5-fluoro-1,3-benzothiazol-6-yl]-N-(2-phenylethyl)benzamide], the half-maximal inhibitory concentration (IC50) under setting [1] came to 2.8 nM.
In turn, `COCCS(=O)(=O)C(C(=O)NCC(=O)NC1CC1)c1nc2cc(F)c(-c3ccc(C(=O)NCCc4ccccc4)cc3)cc2s1` (stereo not shown) [Example 573, 4-[2-({[(cyclopropyl-carbamoyl)methyl]carbamoyl}(2-methoxyethane-sulfonyl)methyl)-5-fluoro-1,3-benzothiazol-6-yl]-N-(2-phenylethyl) benzamide] gave a concentration for half-maximal inhibition (IC50) of 3 nM.
`O=C(CCc1ccccc1)Nc1ccc(-c2cc3sc(C(C(=O)NCC(=O)NC4CC4)S(=O)(=O)CCC(F)(F)F)nc3cc2F)cc1` (stereo not shown) [Example 575, N-{4-[2-({[(Cyclopropylcarbamoyl)methyl]carbamoyl}(3,3,3-trifluoropropanesulfonyl)methyl)-5-fluoro-1,3-benzothiazol-6-yl]phenyl}-3-phenylpropanamide] yielded a half-maximal inhibitory concentration (IC50) under setting [1] of 0.9 nM.
`CS(=O)(=O)C(C(=O)NCC(=O)NC1CC1)c1nc2cc(F)c(-c3ccc(NC(=O)CCc4ccccc4)cc3)cc2s1` (stereo not shown) [Example 576, N-{4-[2-({[(cyclopropyl-carbamoyl)methyl]carbamoyl} (methanesulfonyl)methyl)-5-fluoro-1,3-benzothiazol-6-yl]phenyl}-3-phenyl-propanamide] came in with an IC50 of 1 nM.
Still for that read-out and setting: next, `COCCS(=O)(=O)C(C(=O)NCC(=O)NC1CC1)c1nc2cc(F)c(-c3ccc(NC(=O)CCc4ccccc4)cc3)cc2s1` (stereo not shown) [Example 577, N-{4-[2-({[(cyclopropyl-carbamoyl)methyl]carbamoyl}(2-methoxyethane-sulfonyl)methyl)-5-fluoro-1,3-benzothiazol-6-yl]phenyl}-3-phenyl-propanamide]: 1 nM.
Same read-out and setting: to `CC(C)S(=O)(=O)C(C(=O)NCC(=O)NC1CC1)c1nc2cc(F)c(-c3ccc(NC(=O)CCc4ccccc4)cc3)cc2s1` (stereo not shown) [Example 578, N-{4-[2-({[(cyclopropyl-carbamoyl)methyl]carbamoyl} (propane-2-sulfonyl)methyl)-5-fluoro-1,3-benzothiazol-6-yl]phenyl}-3-phenyl-propanamide] belongs 4 nM.
`CS(=O)(=O)C(C(=O)NCC(=O)NC1CC1)c1nc2cc(F)c(-c3ccc(-n4ccnc4)cc3)cc2s1` (stereo not shown) [Example 579, N-[(Cyclopropylcarbamoyl)methyl]-2-{5-fluoro-6-[4-(1H-imidazol-1-yl)phenyl]-1,3-benzothiazol-2-yl}-2-methanesulfonylacetamide]: under setting [1], inhibition was half-maximal at 6 nM (IC50).
In turn, `CS(=O)(=O)C(C(=O)NCC(=O)NC1CC1)c1nc2ccc(-c3ccc(-n4ccnc4)cc3)cc2s1` (stereo not shown) [Example 580, N-[(cyclopropyl-carbamoyl)methyl]-2-{6-[4-(1H-imidazol-1-yl)phenyl]-1,3-benzothiazol-2-yl}-2-methanesulfonyl-acetamide] had an IC50 of 12 nM.
Regarding `COCCS(=O)(=O)C(C(=O)NCC(=O)NC1CC1)c1nc2cc(F)c(-c3ccc(-n4ccnc4)cc3)cc2s1` (stereo not shown) [Example 581, N-[(cyclopropyl-carbamoyl)methyl]-2-{5-fluoro-6-[4-(1H-imidazol-1-yl)phenyl]-1,3-benzothiazol-2-yl}-2-(2-methoxyethane-sulfonyl)acetamide], the half-maximal inhibitory concentration (IC50) came to 36 nM.
Same read-out and setting: to `CS(=O)(=O)C(C(=O)NCC(=O)NC1CC1)c1nc2ccc(-c3ccc(=O)n(-c4ccccc4)c3)cc2s1` (stereo not shown) [Example 583, N-[(cyclopropyl-carbamoyl)methyl]-2-methanesulfonyl-2-[6-(6-oxo-1-phenyl-1,6-dihydropyridin-3-yl)-1,3-benzothiazol-2-yl]acetamide] belongs 20 nM.
